Active and inactive are the calls of the source. No cut-off for these calls is given here.
Key:
Staphylococcus aureus [1] = test: Synergistic antibacterial activity against methicillin-resistant Staphylococcus aureus CCARM 3089 incubated for 24 hrs in presence of Oxacillin by broth microdilution method; assay type: functional
[2] = Hemolytic activity in sheep RBC incubated for 1 hr by absorbance based assay; assay type: toxicity, cell-based, Ovis aries; settings: erythrocyte
RAW264.7 [3] = test: Anti-inflammatory activity in mouse RAW264.7 cells assessed as decrease in LPS-induced TNF-alpha level at 5 uM pretreated for 1 hr followed by LPS treatment for 16 hrs by ELISA relative to control; assay type: functional; settings: time 17 hrs
Pseudomonas aeruginosa [4] = test: Eradication of biofilm formation in multi-drug resistant Pseudomonas aeruginosa CCARM 2095 at 1 to 128 uM incubated for 12 hrs by CLSM analysis; assay type: functional, organism-based; settings: dose 1-128 µM
Escherichia coli [5] = test: Induction of cytoplasmic membrane depolarization in Escherichia coli KCTC 1682 at MIC measured for 500 secs by diSC3-5 dye based analysis relative to control; assay type: functional; settings: time 500 sec; 0.1389 h
Pseudomonas aeruginosa [6] = test: Synergistic antibacterial activity against multi-drug resistant Pseudomonas aeruginosa CCARM 2095 assessed as fractional inhibitory concentration index by measuring ratio of MIC of compound in presence of Oxacillin to MIC to compound incubated for 24 hrs by broth microdilution method; assay type: functional
Escherichia coli [7] = test: Induction of morphological change in Escherichia coli KCTC 1682 assessed as distorted irregular cells at MIC incubated for 4 hrs by SEM analysis; assay type: functional, organism-based
RAW264.7 [8] = test: Anti-inflammatory activity in mouse RAW264.7 cells assessed as decrease in LPS-induced IL-6 level at 2.5 uM pretreated for 1 hr followed by LPS treatment for 16 hrs by ELISA relative to control; assay type: functional; settings: time 17 hrs
Pseudomonas aeruginosa [9] = test: Anti-biofilm activity against multi-drug resistant Pseudomonas aeruginosa CCARM 2095 assessed as increase in red-stained dead cells at 32 uM incubated for 12 hrs by SYTO9/PI staining based analysis; assay type: functional, organism-based
Pseudomonas aeruginosa [10] = test: Inhibition of biofilm formation in multi-drug resistant Pseudomonas aeruginosa CCARM 2095 at 1 to 128 uM by crystal violet staining based analysis; assay type: functional, organism-based; settings: dose 1-128 µM
[11] = Effect on secondary structure of drug in SDS assessed as fold increase in formation of alpha-helical conformation at 150 uM by CD analysis relative to HVF18; assay type: physicochemical
RAW264.7 [12] = test: Anti-inflammatory activity in mouse RAW264.7 cells assessed as decrease in LPS-induced ROS production at 2.5 uM pretreated for 1 hr followed by LPS treatment for 16 hrs by DCFDA staining based analysis relative to control; assay type: functional; settings: time 17 hrs
Staphylococcus aureus [13] = test: Synergistic antibacterial activity against methicillin-resistant Staphylococcus aureus CCARM 3089 assessed as fractional inhibitory concentration index incubated for 24 hrs in presence of Oxacillin by broth microdilution method; assay type: functional
[14] = Cytotoxicity against mouse RAW264.7 cells assessed as cell viability at 30 uM incubated for 16 hrs by WST-8 assay relative to control; assay type: toxicity, cell-based; settings: read-out: Activity
Escherichia coli [15] = test: Antibacterial activity against Escherichia coli KCTC 1682 incubated for 24 hrs in presence of MgCl2 by CLSI based broth microdilution method; assay type: functional
Pseudomonas aeruginosa [16] = test: Antibacterial activity against multidrug-resistant Pseudomonas aeruginosa CCARM 2109 incubated for 24 hrs by CLSI based broth microdilution method; assay type: functional
Pseudomonas aeruginosa [17] = test: Synergistic antibacterial activity against multi-drug resistant Pseudomonas aeruginosa CCARM 2095 incubated for 24 hrs in presence of Chloramphenicol by broth microdilution method; assay type: functional
Escherichia coli [18] = test: Induction of resistance development in Escherichia coli KCTC 1682 at 0.5 times MIC measured after 30 passages; assay type: functional, organism-based
RAW264.7 [19] = test: Anti-inflammatory activity in mouse RAW264.7 cells assessed as decrease in LPS-induced IL-6 level at 5 uM pretreated for 1 hr followed by LPS treatment for 16 hrs by ELISA relative to control; assay type: functional; settings: time 17 hrs
RAW264.7 [20] = test: Anti-inflammatory activity in mouse RAW264.7 cells assessed as decrease in LPS-induced TNF-alpha level at 2.5 uM pretreated for 1 hr followed by LPS treatment for 16 hrs by ELISA relative to control; assay type: functional; settings: time 17 hrs
[21] = tested on: Staphylococcus epidermidis; test: Antibacterial activity against Staphylococcus epidermidis KCTC 1917 incubated for 24 hrs by CLSI based broth microdilution method; assay type: functional
Staphylococcus aureus [22] = test: Antibacterial activity against methicillin-resistant Staphylococcus aureus CCARM 3089 incubated for 24 hrs by CLSI based broth microdilution method; assay type: functional
Staphylococcus aureus [23] = test: Antibacterial activity against methicillin-resistant Staphylococcus aureus CCARM 3090 incubated for 24 hrs by CLSI based broth microdilution method; assay type: functional
Escherichia coli [24] = test: Antibacterial activity against Escherichia coli KCTC 1682 incubated for 24 hrs in presence of FeCl3 by CLSI based broth microdilution method; assay type: functional
Staphylococcus aureus [25] = test: Synergistic antibacterial activity against methicillin-resistant Staphylococcus aureus CCARM 3089 assessed as fractional inhibitory concentration index incubated for 24 hrs in presence of Chloramphenicol by broth microdilution method; assay type: functional
Staphylococcus aureus [26] = test: Synergistic antibacterial activity against methicillin-resistant Staphylococcus aureus CCARM 3089 assessed as MIC of Chloramphenicol incubated for 24 hrs by broth microdilution method; assay type: functional
RAW264.7 [27] = test: Anti-inflammatory activity in mouse RAW264.7 cells assessed as decrease in LPS-induced ROS production at 5 uM pretreated for 1 hr followed by LPS treatment for 16 hrs by DCFDA staining based analysis relative to control; assay type: functional
Staphylococcus aureus [28] = test: Synergistic antibacterial activity against methicillin-resistant Staphylococcus aureus CCARM 3089 assessed as fractional inhibitory concentration index by measuring ratio of MIC of compound in presence of Oxacillin to MIC to compound incubated for 24 hrs by broth microdilution method; assay type: functional
Acinetobacter baumannii = test: Antibacterial activity against multidrug-resistant Acinetobacter baumannii 329-97 incubated for 24 hrs by CLSI based broth microdilution method; assay type: functional
Pseudomonas aeruginosa [29] = test: Antibacterial activity against multi-drug resistant Pseudomonas aeruginosa CCARM 2095 incubated for 24 hrs by broth microdilution method; assay type: functional
Staphylococcus aureus [30] = test: Antibacterial activity against Staphylococcus aureus KCTC 1621 incubated for 24 hrs by CLSI based broth microdilution method; assay type: functional
Pseudomonas aeruginosa [31] = test: Synergistic antibacterial activity against multi-drug resistant Pseudomonas aeruginosa CCARM 2095 assessed as fractional inhibitory concentration index by measuring ratio of MIC of Chloramphenicol in presence of compound to MIC to Chloramphenicol incubated for 24 hrs by broth microdilution method; assay type: functional
Salmonella typhimurium = test: Antibacterial activity against Salmonella typhimurium KCTC 1926 incubated for 24 hrs by CLSI based broth microdilution method; assay type: functional, Salmonella enterica subsp. enterica serovar Typhimurium; settings: Salmonella enterica
Pseudomonas aeruginosa [32] = test: Synergistic antibacterial activity against multi-drug resistant Pseudomonas aeruginosa CCARM 2095 assessed as fractional inhibitory concentration index by measuring ratio of MIC of Oxacillin in presence of compound to MIC to Oxacillin incubated for 24 hrs by broth microdilution method; assay type: functional
Staphylococcus aureus [33] = test: Synergistic antibacterial activity against methicillin-resistant Staphylococcus aureus CCARM 3089 assessed as MIC of Ciprofloxacin incubated for 24 hrs by broth microdilution method; assay type: functional
Escherichia coli [34] = test: Antibacterial activity against Escherichia coli KCTC 1682 incubated for 24 hrs in presence of NaCl by CLSI based broth microdilution method; assay type: functional

Substance | MIC (Staphylococcus aureus [1]) | HC10 [2] | inhibition at 5 µM (RAW264.7 [3]) | Activity (Pseudomonas aeruginosa [4]) | Activity (Escherichia coli [5]) | FIC (Pseudomonas aeruginosa [6]) | Activity (Escherichia coli [7]) | inhibition at 2.5 µM (RAW264.7 [8]) | Activity (Pseudomonas aeruginosa [9]) | Activity (Pseudomonas aeruginosa [10]) | fold change (FC) [11] | inhibition at 2.5 µM (RAW264.7 [12]) | fractional inhibitory concentration index (FICI) (Staphylococcus aureus [13]) | viability at 16 h, 30 µM [14] | MIC (Escherichia coli [15]) | MIC (Pseudomonas aeruginosa [16]) | MIC (Pseudomonas aeruginosa [17]) | Activity (Escherichia coli [18]) | inhibition at 5 µM (RAW264.7 [19]) | inhibition at 2.5 µM (RAW264.7 [20]) | further results
H-GVFRLKKWIKKVIKKWGK-NH2 | 0.5 µM | > 256 µM | 5.7% | Active; Superior Activity Compared To Ll-37 | ~100% | 0.25 | Active | 28.6% | Active | Active; Superior Activity Compared To Ll-37 | ~ 5 | 14.9% | 0.313 | > 80% | 32 µM | 16 µM | 2 µM | inactive | 44.4% | 2.6% | MIC [21]: 8 µM; MIC (Staphylococcus aureus [22]): 8 µM; MIC (Staphylococcus aureus [23]): 8 µM; MIC (Escherichia coli [24]): 32 µM; fractional inhibitory concentration index (FICI) (Staphylococcus aureus [25]): 0.5; MIC (Staphylococcus aureus [26]): 256 µM; inhibition at 5 µM (RAW264.7 [27]): 40%; FIC (Staphylococcus aureus [28]): 0.063; MIC (Acinetobacter baumannii): 2 µM; MIC (Pseudomonas aeruginosa [29]): 8 µM; MIC (Staphylococcus aureus [30]): 8 µM; FIC (Pseudomonas aeruginosa [31]): 0.125; MIC (Salmonella typhimurium): 4 µM; FIC (Pseudomonas aeruginosa [32]): 0.031; MIC (Staphylococcus aureus [33]): 512 µM; MIC (Escherichia coli [34]): 32 µM
H-GVFRLKKWLKKVKKWGK-NH2 | 0.5 µM | > 256 µM | 78.1% | Active; Superior Activity Compared To Ll-37 | ~100% | 0.25 | Active | 98.5% | Active | Active; Superior Activity Compared To Ll-37 | ~ 5 | 38.2% | 0.313 | > 80% | 32 µM | 8 µM | 2 µM | inactive | 99% | 32.3% | MIC [21]: 8 µM; MIC (Staphylococcus aureus [22]): 8 µM; MIC (Staphylococcus aureus [23]): 8 µM; MIC (Escherichia coli [24]): 32 µM; fractional inhibitory concentration index (FICI) (Staphylococcus aureus [25]): 0.563; MIC (Staphylococcus aureus [26]): 512 µM; inhibition at 5 µM (RAW264.7 [27]): 51.1%; FIC (Staphylococcus aureus [28]): 0.063; MIC (Acinetobacter baumannii): 4 µM; MIC (Pseudomonas aeruginosa [29]): 8 µM; MIC (Staphylococcus aureus [30]): 8 µM; FIC (Pseudomonas aeruginosa [31]): 0.125; MIC (Salmonella typhimurium): 8 µM; FIC (Pseudomonas aeruginosa [32]): 0.031; MIC (Staphylococcus aureus [33]): 512 µM; MIC (Escherichia coli [34]): 32 µM

From ChEMBL document CHEMBL6074662, “Antibacterial, Antibiofilm, and Anti-inflammatory Effects of a Novel Thrombin-Derived Peptide in Sepsis Models: Insights into Underlying Mechanisms” (J Med Chem, 2024)
